Results published in BigSolDB 2.1.

Details: in ethanol

## N#Cc1ccc(C(=O)O)cc1
298.15 K
  solubility (mole fraction): 0.0214
303.15 K
  solubility (mole fraction): 0.0266
308.15 K
  solubility (mole fraction): 0.0331
313.15 K
  solubility (mole fraction): 0.0353
318.15 K
  solubility (mole fraction): 0.044

## O=C(O)c1ccc(Cl)cc1Cl
298.15 K
  solubility (mole fraction): 0.0581
303.15 K
  solubility (mole fraction): 0.0693
308.15 K
  solubility (mole fraction): 0.0817
313.15 K
  solubility (mole fraction): 0.0953
318.15 K
  solubility (mole fraction): 0.118

## CC(=O)Oc1ccc(C(=O)O)cc1
298.15 K
  solubility (mole fraction): 0.0249
303.15 K
  solubility (mole fraction): 0.0302
308.15 K
  solubility (mole fraction): 0.0358
313.15 K
  solubility (mole fraction): 0.0432
318.15 K
  solubility (mole fraction): 0.0522

## Nc1cc(N)cc(C(=O)O)c1
298.15 K
  solubility (mole fraction): 0.00334
303.15 K
  solubility (mole fraction): 0.00342
308.15 K
  solubility (mole fraction): 0.004
313.15 K
  solubility (mole fraction): 0.00441
318.15 K
  solubility (mole fraction): 0.00519

## COc1cc(OC)cc(C(=O)O)c1
298.15 K
  solubility (mole fraction): 0.00493
303.15 K
  solubility (mole fraction): 0.00607
308.15 K
  solubility (mole fraction): 0.00746
313.15 K
  solubility (mole fraction): 0.00934
318.15 K
  solubility (mole fraction): 0.0116
